Results published in PubChem BioAssay (NCI).
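All cell lines were grown in 96-well plates and treated with compound for 48 hours. GI50 marks 50% less growth. TGI denotes the concentration required for complete inhibition of growth.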

Tests used:
Test in all cases: DTP human tumour cell line panel, 48 h
T-47D breast = tested on: T-47D breast
IGROV1 ovarian = tested on: IGROV1 ovarian
LOX IMVI melanoma = tested on: LOX IMVI melanoma
OVCAR-8 ovarian = tested on: OVCAR-8 ovarian
SN12C renal = tested on: SN12C renal
A549 NSCLC = tested on: A549 NSCLC
OVCAR-3 ovarian = tested on: OVCAR-3 ovarian
SF-295 CNS = tested on: SF-295 CNS
NCI-H522 lung = tested on: NCI-H522 lung
HT29 colon = tested on: HT29 colon
A498 renal = tested on: A498 renal
SF-539 CNS = tested on: SF-539 CNS
KM12 colon = tested on: KM12 colon
TK-10 renal = tested on: TK-10 renal
RPMI-8226 leukemia = tested on: RPMI-8226 leukemia
U251 CNS = tested on: U251 CNS
HCT-15 colon = tested on: HCT-15 colon
PC-3 prostate = tested on: PC-3 prostate
SNB-75 CNS = tested on: SNB-75 CNS
EKVX NSCLC = tested on: EKVX NSCLC
BT-549 breast = tested on: BT-549 breast
MOLT-4 leukemia = tested on: MOLT-4 leukemia
UO-31 renal = tested on: UO-31 renal
NCI-H23 lung = tested on: NCI-H23 lung
SK-OV-3 ovarian = tested on: SK-OV-3 ovarian
NCI-H226 lung = tested on: NCI-H226 lung
MDA-MB-231 breast = tested on: MDA-MB-231 breast
SF-268 CNS = tested on: SF-268 CNS
RXF 393 renal = tested on: RXF 393 renal
HCT-116 colon = tested on: HCT-116 colon
NCI/ADR-RES ovarian = tested on: NCI/ADR-RES ovarian
MDA-MB-435 = tested on: MDA-MB-435
SR leukemia = tested on: SR leukemia
SK-MEL-5 melanoma = tested on: SK-MEL-5 melanoma
CAKI-1 renal = tested on: CAKI-1 renal
SW-620 colon = tested on: SW-620 colon
786-0 renal = tested on: 786-0 renal
OVCAR-5 ovarian = tested on: OVCAR-5 ovarian
SNB-19 CNS = tested on: SNB-19 CNS
MALME-3M melanoma = tested on: MALME-3M melanoma
SK-MEL-2 melanoma = tested on: SK-MEL-2 melanoma
DU-145 prostate = tested on: DU-145 prostate
CCRF-CEM leukemia = tested on: CCRF-CEM leukemia
MCF7 breast = tested on: MCF7 breast
HL-60(TB) leukemia = tested on: HL-60(TB) leukemia
NCI-H460 lung = tested on: NCI-H460 lung
HOP-62 NSCLC = tested on: HOP-62 NSCLC
SK-MEL-28 melanoma = tested on: SK-MEL-28 melanoma
M14 melanoma = tested on: M14 melanoma
UACC-257 melanoma = tested on: UACC-257 melanoma
K-562 leukemia = tested on: K-562 leukemia
OVCAR-4 ovarian = tested on: OVCAR-4 ovarian
COLO 205 colon = tested on: COLO 205 colon
HCC-2998 colon = tested on: HCC-2998 colon
UACC-62 melanoma = tested on: UACC-62 melanoma
ACHN renal = tested on: ACHN renal
HOP-92 NSCLC = tested on: HOP-92 NSCLC
HS 578T breast = tested on: HS 578T breast
MDA-N = tested on: MDA-N

## CC/C=C\C[C@H](O)C/C=C1/C(=O)C=C[C@@H]1C/C=C\CCCCO
T-47D breast
  GI50: 2.63 µM
  TGI: 11.1 µM
IGROV1 ovarian
  GI50: 3.22 µM
  TGI: 12 µM
LOX IMVI melanoma
  GI50: 1.34 µM
  TGI: 2.93 µM
OVCAR-8 ovarian
  GI50: 3.24 µM
  TGI: 11.9 µM
SN12C renal
  GI50: 2.52 µM
  TGI: 6.53 µM
A549 NSCLC
  GI50: 3.35 µM
  TGI: 11.5 µM
OVCAR-3 ovarian
  GI50: 3.72 µM
  TGI: 12.9 µM
SF-295 CNS
  GI50: 2.39 µM
  TGI: 6.34 µM
NCI-H522 lung
  GI50: 1.74 µM
  TGI: 3.95 µM
HT29 colon
  GI50: 2.4 µM
  TGI: 5.62 µM
A498 renal
  GI50: 16.8 µM
  TGI: 32.5 µM
SF-539 CNS
  GI50: 2.03 µM
  TGI: 4.55 µM
KM12 colon
  GI50: 2.84 µM
  TGI: 11.5 µM
TK-10 renal
  GI50: 3.31 µM
  TGI: 9.22 µM
RPMI-8226 leukemia
  GI50: 2.52 µM
  TGI: 10.4 µM
U251 CNS
  GI50: 3.81 µM
  TGI: 13.4 µM
HCT-15 colon
  GI50: 1.58 µM
  TGI: 4.57 µM
PC-3 prostate
  GI50: 3.32 µM
  TGI: 9.23 µM
SNB-75 CNS
  GI50: 11 µM
  TGI: 38.4 µM
EKVX NSCLC
  GI50: 4.22 µM
  TGI: 18 µM
BT-549 breast
  GI50: 2.46 µM
  TGI: 6.68 µM
MOLT-4 leukemia
  GI50: 2.65 µM
  TGI: 11.1 µM
UO-31 renal
  GI50: 1.63 µM
  TGI: 3.23 µM
NCI-H23 lung
  GI50: 2.26 µM
  TGI: 5.95 µM
SK-OV-3 ovarian
  GI50: 5.08 µM
  TGI: 29.2 µM
NCI-H226 lung
  GI50: 2.24 µM
  TGI: 4.76 µM
MDA-MB-231 breast
  GI50: 3.92 µM
  TGI: 14.9 µM
SF-268 CNS
  GI50: 4.53 µM
  TGI: 23.9 µM
RXF 393 renal
  GI50: 2.25 µM
  TGI: 4.18 µM
HCT-116 colon
  GI50: 1.7 µM
  TGI: 3.33 µM
NCI/ADR-RES ovarian
  GI50: 3.35 µM
  TGI: 38.4 µM
MDA-MB-435
  GI50: 3.48 µM
  TGI: 15.8 µM
SR leukemia
  GI50: 1.97 µM
  TGI: 16.2 µM
SK-MEL-5 melanoma
  GI50: 1.88 µM
  TGI: 3.78 µM
CAKI-1 renal
  GI50: 3.14 µM
  TGI: 12.8 µM
SW-620 colon
  GI50: 2.98 µM
  TGI: 15.2 µM
786-0 renal
  GI50: 1.91 µM
  TGI: 3.77 µM
OVCAR-5 ovarian
  GI50: 3.25 µM
  TGI: 8.95 µM
SNB-19 CNS
  GI50: 7.6 µM
  TGI: 23.2 µM
MALME-3M melanoma
  GI50: 2.44 µM
  TGI: 7.48 µM
SK-MEL-2 melanoma
  GI50: 5.96 µM
  TGI: 22.6 µM
DU-145 prostate
  GI50: 4 µM
  TGI: 15.2 µM
CCRF-CEM leukemia
  GI50: 2.43 µM
  TGI: 16.5 µM
MCF7 breast
  GI50: 0.544 µM
  TGI: 10.6 µM
HL-60(TB) leukemia
  GI50: 2.29 µM
  TGI: 6.88 µM
NCI-H460 lung
  GI50: 2.93 µM
  TGI: 9.24 µM
HOP-62 NSCLC
  GI50: 2.12 µM
  TGI: 5 µM
SK-MEL-28 melanoma
  GI50: 2.39 µM
  TGI: 6.87 µM
M14 melanoma
  GI50: 2.06 µM
  TGI: 6.17 µM
UACC-257 melanoma
  GI50: 2.59 µM
  TGI: 9.36 µM
K-562 leukemia
  GI50: 2.91 µM
  TGI: > 100 µM
OVCAR-4 ovarian
  GI50: 3.55 µM
  TGI: 18.7 µM
COLO 205 colon
  GI50: 2.45 µM
  TGI: 5.99 µM
HCC-2998 colon
  GI50: 1.83 µM
  TGI: 3.38 µM
UACC-62 melanoma
  GI50: 1.87 µM
  TGI: 5.46 µM
ACHN renal
  GI50: 1.8 µM
  TGI: 3.66 µM
HOP-92 NSCLC
  GI50: 11.7 µM
  TGI: 25 µM
HS 578T breast
  GI50: 9.24 µM
  TGI: > 100 µM

## O=c1[nH]c(=O)n(CCOc2ccc(Cl)cc2)cc1Nc1ccccc1
IGROV1 ovarian
  TGI: > 100 µM
LOX IMVI melanoma
  TGI: > 100 µM
SN12C renal
  TGI: > 100 µM
A549 NSCLC
  TGI: > 100 µM
OVCAR-3 ovarian
  TGI: > 100 µM
SF-295 CNS
  TGI: > 100 µM
HT29 colon
  TGI: > 100 µM
A498 renal
  TGI: > 100 µM
KM12 colon
  TGI: > 100 µM
RPMI-8226 leukemia
  TGI: > 100 µM
U251 CNS
  TGI: > 100 µM
HCT-15 colon
  TGI: > 100 µM
PC-3 prostate
  TGI: > 100 µM
EKVX NSCLC
  TGI: > 100 µM
MOLT-4 leukemia
  TGI: > 100 µM
UO-31 renal
  TGI: > 100 µM
NCI-H23 lung
  TGI: > 100 µM
SF-268 CNS
  TGI: > 100 µM
RXF 393 renal
  TGI: > 100 µM
HCT-116 colon
  TGI: > 100 µM
NCI/ADR-RES ovarian
  TGI: > 100 µM
MDA-MB-435
  TGI: > 100 µM
SR leukemia
  TGI: > 100 µM
SK-MEL-5 melanoma
  TGI: > 100 µM
CAKI-1 renal
  TGI: > 100 µM
SW-620 colon
  TGI: > 100 µM
786-0 renal
  TGI: > 100 µM
OVCAR-5 ovarian
  TGI: > 100 µM
SNB-19 CNS
  TGI: > 100 µM
DU-145 prostate
  TGI: > 100 µM
CCRF-CEM leukemia
  TGI: > 100 µM
MCF7 breast
  TGI: > 100 µM
MDA-N
  TGI: > 100 µM
HL-60(TB) leukemia
  TGI: > 100 µM
NCI-H460 lung
  TGI: > 100 µM
HOP-62 NSCLC
  TGI: > 100 µM
SK-MEL-28 melanoma
  TGI: > 100 µM
M14 melanoma
  TGI: > 100 µM
UACC-257 melanoma
  TGI: > 100 µM
K-562 leukemia
  TGI: > 100 µM
OVCAR-4 ovarian
  TGI: > 100 µM
COLO 205 colon
  TGI: > 100 µM
HCC-2998 colon
  TGI: > 100 µM
UACC-62 melanoma
  TGI: > 100 µM
ACHN renal
  TGI: > 100 µM
HOP-92 NSCLC
  TGI: > 100 µM
HS 578T breast
  TGI: > 100 µM
